Results: ChEMBL document CHEMBL3991601, “The target landscape of clinical kinase drugs” (Science, 2017)
Active and inactive are the calls of the source. For most assays here, no stated cut-off is given here; in the data, actives have a measured Kd and inactives only a lower limit.

Legend:
[1] = target: Phosphatidylethanolamine-binding protein 1 (Homo sapiens, UniProt P30086)
[2] = target: Rho-associated protein kinase 2 (Homo sapiens, UniProt O75116)
[3] = target: T1, Phosphatidylinositol 5-phosphate 4-kinase type-2 alpha (Homo sapiens, UniProt P48426)
T1 sequence (P48426 whole entry): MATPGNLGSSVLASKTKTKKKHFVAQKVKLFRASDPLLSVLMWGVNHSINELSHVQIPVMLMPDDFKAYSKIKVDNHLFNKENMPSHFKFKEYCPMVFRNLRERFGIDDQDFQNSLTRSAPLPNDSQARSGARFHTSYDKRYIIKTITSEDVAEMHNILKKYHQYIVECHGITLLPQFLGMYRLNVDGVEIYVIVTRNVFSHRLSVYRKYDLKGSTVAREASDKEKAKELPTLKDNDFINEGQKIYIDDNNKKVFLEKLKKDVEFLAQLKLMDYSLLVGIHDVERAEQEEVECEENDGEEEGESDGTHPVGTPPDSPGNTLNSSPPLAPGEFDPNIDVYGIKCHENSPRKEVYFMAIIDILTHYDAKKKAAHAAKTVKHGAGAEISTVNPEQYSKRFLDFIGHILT

[4] = target: Dual specificity tyrosine-phosphorylation-regulated kinase 1A (Homo sapiens, UniProt Q13627)
[5] = target: T2, Exosome RNA helicase MTR4 (Homo sapiens, UniProt P42285)
T2 sequence (P42285 whole entry): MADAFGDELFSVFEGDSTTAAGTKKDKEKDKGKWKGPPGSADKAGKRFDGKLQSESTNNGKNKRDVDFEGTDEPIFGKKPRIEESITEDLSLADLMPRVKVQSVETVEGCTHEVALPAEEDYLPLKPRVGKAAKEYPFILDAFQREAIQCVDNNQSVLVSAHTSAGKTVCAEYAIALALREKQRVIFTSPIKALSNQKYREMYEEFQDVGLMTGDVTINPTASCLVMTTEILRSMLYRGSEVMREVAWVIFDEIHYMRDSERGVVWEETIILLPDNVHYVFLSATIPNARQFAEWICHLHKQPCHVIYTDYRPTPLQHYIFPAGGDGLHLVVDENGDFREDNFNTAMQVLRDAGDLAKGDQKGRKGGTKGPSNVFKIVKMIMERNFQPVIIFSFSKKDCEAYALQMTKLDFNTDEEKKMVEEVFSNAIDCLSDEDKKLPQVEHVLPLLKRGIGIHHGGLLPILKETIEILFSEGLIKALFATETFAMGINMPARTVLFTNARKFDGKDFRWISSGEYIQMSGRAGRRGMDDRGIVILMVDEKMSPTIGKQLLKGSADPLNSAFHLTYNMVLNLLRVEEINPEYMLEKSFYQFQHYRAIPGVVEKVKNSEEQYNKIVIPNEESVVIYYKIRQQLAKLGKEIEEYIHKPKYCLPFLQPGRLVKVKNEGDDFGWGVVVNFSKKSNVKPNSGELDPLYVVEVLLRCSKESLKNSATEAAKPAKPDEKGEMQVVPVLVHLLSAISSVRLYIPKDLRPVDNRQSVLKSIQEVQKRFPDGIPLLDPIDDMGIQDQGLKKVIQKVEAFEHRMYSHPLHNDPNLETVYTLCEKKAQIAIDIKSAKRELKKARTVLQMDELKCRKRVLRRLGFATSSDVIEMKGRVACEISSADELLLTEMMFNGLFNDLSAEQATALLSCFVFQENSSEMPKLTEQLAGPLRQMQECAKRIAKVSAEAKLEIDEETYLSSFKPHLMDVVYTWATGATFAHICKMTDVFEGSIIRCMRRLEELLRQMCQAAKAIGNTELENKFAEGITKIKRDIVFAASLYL

[6] = target: T3, Thyroid hormone receptor-associated protein 3 (Homo sapiens, UniProt Q9Y2W1)
T3 sequence (Q9Y2W1 whole entry): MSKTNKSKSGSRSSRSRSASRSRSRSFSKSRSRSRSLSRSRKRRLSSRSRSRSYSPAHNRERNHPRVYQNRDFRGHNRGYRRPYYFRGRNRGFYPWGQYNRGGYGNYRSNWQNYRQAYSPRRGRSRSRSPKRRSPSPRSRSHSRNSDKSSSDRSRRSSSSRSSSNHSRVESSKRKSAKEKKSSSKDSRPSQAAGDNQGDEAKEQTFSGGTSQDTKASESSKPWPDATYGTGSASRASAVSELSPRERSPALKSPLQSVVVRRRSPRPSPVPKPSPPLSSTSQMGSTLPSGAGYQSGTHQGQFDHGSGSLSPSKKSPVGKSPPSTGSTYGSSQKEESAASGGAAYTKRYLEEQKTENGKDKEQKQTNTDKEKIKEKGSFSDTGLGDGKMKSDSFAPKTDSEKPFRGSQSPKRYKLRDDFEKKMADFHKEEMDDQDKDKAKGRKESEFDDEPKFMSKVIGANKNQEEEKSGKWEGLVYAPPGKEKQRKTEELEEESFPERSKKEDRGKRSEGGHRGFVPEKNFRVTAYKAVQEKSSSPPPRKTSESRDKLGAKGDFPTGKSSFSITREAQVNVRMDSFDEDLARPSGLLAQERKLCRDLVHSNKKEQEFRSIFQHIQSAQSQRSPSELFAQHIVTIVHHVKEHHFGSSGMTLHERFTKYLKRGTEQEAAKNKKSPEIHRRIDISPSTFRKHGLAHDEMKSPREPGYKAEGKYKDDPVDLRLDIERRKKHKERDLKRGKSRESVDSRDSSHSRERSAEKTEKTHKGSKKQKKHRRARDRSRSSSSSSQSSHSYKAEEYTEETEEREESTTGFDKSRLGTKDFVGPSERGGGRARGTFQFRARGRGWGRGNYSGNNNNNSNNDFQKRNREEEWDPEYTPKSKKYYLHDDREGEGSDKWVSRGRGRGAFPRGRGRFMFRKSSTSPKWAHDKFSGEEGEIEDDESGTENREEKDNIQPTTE

[7] = target: STE20-like serine/threonine-protein kinase (Homo sapiens, UniProt Q9H2G2)
Chain of STE20-like serine/threonine-protein kinase (Q9H2G2 whole entry): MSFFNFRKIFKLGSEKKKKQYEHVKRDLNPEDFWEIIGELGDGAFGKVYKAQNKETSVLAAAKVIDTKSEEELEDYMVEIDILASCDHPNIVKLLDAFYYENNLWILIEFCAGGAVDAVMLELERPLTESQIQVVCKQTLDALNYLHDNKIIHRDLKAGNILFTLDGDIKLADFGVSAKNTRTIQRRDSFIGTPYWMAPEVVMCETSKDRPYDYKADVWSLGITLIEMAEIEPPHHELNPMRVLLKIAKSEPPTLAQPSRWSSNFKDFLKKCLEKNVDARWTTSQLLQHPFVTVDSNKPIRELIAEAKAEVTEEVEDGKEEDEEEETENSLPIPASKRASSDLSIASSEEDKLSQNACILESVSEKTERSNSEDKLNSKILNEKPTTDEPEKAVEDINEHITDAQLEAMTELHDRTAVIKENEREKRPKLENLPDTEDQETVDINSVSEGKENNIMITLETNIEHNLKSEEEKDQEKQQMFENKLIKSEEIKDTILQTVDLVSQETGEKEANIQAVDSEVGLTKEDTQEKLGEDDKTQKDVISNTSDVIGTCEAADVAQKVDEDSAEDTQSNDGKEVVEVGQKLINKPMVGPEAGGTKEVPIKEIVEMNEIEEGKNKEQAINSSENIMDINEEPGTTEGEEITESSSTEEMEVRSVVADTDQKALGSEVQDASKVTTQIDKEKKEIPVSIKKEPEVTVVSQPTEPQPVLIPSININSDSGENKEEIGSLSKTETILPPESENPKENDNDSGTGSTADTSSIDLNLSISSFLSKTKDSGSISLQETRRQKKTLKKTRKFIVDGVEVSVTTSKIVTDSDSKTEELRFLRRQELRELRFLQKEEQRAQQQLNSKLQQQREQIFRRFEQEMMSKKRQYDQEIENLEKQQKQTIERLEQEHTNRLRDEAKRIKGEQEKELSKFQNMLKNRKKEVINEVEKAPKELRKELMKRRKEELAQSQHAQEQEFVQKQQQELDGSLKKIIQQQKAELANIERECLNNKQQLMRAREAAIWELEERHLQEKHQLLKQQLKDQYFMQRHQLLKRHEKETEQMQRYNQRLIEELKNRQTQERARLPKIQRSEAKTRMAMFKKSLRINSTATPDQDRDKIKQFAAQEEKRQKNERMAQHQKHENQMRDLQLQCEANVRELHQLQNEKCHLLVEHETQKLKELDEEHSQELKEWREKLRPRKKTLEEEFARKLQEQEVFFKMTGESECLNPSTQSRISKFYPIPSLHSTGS

[8] = target: Cyclin-dependent kinase 17 (Homo sapiens, UniProt Q00537)
Chain of Cyclin-dependent kinase 17 (Q00537 whole entry): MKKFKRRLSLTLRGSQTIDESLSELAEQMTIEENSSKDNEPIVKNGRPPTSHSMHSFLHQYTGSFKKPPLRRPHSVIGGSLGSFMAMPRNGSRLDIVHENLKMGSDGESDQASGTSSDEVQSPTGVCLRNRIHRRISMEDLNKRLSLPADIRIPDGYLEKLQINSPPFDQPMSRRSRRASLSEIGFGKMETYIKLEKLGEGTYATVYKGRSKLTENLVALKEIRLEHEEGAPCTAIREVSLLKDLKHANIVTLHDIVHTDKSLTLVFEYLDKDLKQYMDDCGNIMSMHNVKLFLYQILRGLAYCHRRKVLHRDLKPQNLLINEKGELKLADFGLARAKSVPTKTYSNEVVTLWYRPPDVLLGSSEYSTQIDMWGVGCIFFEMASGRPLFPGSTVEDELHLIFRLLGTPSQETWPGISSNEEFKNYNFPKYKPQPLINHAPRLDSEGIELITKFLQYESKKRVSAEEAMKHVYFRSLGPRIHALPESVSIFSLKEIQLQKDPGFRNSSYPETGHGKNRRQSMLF

[9] = target: Serine/threonine-protein kinase pim-1 (Homo sapiens, UniProt P11309)
Chain of Serine/threonine-protein kinase pim-1 (P11309 whole entry, canonical isoform): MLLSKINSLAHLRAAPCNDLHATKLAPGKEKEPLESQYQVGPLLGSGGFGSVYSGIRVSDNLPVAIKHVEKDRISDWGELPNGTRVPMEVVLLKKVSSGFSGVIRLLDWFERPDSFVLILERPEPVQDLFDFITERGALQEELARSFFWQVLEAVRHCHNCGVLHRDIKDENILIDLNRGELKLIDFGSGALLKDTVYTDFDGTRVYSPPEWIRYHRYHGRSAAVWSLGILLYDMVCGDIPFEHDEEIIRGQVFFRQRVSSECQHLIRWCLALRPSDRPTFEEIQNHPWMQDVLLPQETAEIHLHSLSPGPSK

[10] = target: S-adenosylmethionine synthase isoform type-2 (Homo sapiens, UniProt P31153)
Chain of S-adenosylmethionine synthase isoform type-2 (P31153 whole entry, canonical isoform): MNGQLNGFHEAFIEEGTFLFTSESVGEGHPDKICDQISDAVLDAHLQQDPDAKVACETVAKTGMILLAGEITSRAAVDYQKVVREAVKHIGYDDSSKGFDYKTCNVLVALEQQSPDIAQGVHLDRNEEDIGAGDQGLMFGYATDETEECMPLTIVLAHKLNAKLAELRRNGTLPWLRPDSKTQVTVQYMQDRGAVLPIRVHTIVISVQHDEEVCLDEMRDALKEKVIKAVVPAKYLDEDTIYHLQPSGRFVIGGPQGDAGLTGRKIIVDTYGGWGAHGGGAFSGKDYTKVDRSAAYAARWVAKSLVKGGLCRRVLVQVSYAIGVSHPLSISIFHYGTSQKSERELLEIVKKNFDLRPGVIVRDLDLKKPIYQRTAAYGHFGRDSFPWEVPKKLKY

[11] = target: BMP-2-inducible protein kinase (Homo sapiens, UniProt Q9NSY1)
[12] = target: Ribosomal protein S6 kinase alpha-1 (Homo sapiens, UniProt Q15418)
Chain of Ribosomal protein S6 kinase alpha-1 (Q15418 whole entry): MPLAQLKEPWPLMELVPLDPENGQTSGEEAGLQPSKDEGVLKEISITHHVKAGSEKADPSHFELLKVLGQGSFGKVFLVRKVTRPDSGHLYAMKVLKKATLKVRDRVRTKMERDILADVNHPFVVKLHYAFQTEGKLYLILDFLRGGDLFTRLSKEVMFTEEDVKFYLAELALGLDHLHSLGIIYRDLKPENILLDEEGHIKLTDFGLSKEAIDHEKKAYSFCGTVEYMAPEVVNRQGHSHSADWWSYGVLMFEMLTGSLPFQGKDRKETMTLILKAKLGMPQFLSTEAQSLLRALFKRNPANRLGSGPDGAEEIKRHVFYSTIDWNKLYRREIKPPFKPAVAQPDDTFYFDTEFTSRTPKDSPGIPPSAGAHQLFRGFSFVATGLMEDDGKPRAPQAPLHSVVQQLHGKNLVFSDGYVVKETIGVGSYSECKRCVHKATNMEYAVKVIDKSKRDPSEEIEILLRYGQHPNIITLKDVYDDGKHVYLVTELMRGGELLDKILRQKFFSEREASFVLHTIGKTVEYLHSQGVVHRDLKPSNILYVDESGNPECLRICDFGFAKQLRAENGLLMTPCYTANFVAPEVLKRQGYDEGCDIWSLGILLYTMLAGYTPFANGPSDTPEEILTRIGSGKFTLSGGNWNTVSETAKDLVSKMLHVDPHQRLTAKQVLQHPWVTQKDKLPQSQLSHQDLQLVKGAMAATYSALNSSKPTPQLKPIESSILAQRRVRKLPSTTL

[13] = target: Mitogen-activated protein kinase kinase kinase 1 (Homo sapiens, UniProt Q13233)

Chain of Rho-associated protein kinase 2 (O75116 whole entry): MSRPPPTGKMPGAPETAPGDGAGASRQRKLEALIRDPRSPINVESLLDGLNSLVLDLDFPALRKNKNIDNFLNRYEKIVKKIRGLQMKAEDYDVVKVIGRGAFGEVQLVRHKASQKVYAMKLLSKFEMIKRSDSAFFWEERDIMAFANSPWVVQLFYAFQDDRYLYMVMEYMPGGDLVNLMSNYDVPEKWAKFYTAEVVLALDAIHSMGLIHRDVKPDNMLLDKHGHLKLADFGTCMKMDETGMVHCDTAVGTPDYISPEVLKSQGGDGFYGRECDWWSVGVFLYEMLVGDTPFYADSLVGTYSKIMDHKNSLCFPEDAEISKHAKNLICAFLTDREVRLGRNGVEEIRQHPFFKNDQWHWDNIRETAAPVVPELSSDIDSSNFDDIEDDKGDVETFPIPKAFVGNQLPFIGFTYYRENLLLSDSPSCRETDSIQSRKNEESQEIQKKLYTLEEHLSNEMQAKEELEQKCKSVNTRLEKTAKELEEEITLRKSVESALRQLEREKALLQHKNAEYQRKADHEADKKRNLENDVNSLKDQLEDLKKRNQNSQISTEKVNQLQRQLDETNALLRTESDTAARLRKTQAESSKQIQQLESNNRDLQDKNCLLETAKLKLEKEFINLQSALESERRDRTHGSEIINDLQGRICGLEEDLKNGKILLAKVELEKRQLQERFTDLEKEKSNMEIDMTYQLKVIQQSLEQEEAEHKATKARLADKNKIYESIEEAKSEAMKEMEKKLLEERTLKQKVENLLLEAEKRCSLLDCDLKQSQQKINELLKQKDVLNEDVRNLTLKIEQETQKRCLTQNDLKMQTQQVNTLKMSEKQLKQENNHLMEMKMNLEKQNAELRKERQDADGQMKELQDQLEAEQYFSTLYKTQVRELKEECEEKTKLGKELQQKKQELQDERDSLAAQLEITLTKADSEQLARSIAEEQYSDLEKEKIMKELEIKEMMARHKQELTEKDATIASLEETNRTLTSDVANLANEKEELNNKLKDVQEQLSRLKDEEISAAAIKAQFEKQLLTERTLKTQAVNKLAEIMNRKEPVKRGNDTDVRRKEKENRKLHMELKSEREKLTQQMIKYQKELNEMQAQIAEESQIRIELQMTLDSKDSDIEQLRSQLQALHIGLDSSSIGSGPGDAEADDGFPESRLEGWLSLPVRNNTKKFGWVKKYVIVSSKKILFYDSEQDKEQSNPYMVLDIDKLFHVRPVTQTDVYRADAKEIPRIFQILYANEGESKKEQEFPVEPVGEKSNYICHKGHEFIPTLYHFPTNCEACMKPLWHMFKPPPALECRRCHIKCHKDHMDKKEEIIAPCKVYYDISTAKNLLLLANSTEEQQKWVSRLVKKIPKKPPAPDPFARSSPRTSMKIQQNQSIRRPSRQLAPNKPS
Chain of Phosphatidylethanolamine-binding protein 1 (P30086 whole entry): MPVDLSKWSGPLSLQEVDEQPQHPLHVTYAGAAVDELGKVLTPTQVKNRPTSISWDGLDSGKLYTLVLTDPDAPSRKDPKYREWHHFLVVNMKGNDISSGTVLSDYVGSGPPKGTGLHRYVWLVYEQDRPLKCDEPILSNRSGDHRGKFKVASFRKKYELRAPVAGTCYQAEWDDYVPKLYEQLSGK

C=CC(=O)N1CCC[C@H](n2c(=O)n(-c3ccc(Oc4ccccc4)cc3)c3c(N)ncnc32)C1
Kd [1]: > 30 µM (inactive) | Kd [2]: > 30 µM (inactive) | Kd [3]: > 30 µM (inactive) | Kd [4]: > 30 µM (inactive) | Kd [5]: > 30 µM (inactive) | Kd [6]: > 30 µM (inactive) | Kd [7]: > 30 µM (inactive) | Kd [8]: > 30 µM (inactive) | Kd [9]: > 30 µM (inactive) | Kd [10]: > 30 µM (inactive) | Kd [11]: > 30 µM (inactive) | Kd [12]: > 30 µM (inactive) | Kd [13]: > 30 µM (inactive)

Cc1nc2cc(-c3nn(C(C)C)c4ncnc(N)c34)ccc2o1
Kd [1]: > 30 µM (inactive) | Kd [2]: > 30 µM (inactive) | Kd [3]: > 30 µM (inactive) | Kd [4]: > 30 µM (inactive) | Kd [5]: > 30 µM (inactive) | Kd [6]: > 30 µM (inactive) | Kd [7]: > 30 µM (inactive) | Kd [8]: > 30 µM (inactive) | Kd [9]: > 30 µM (inactive) | Kd [10]: > 30 µM (inactive) | Kd [11]: > 30 µM (inactive) | Kd [12]: > 30 µM (inactive) | Kd [13]: 1.05 µM (active)

COCc1c(-c2ccc(NC(=O)Nc3cc(C(F)(F)F)ccc3F)c(F)c2)c2c(N)ncnn2c1CN1CCOCC1
Kd [1]: > 30 µM (inactive) | Kd [2]: > 30 µM (inactive) | Kd [3]: > 30 µM (inactive) | Kd [4]: > 30 µM (inactive) | Kd [5]: > 30 µM (inactive) | Kd [6]: > 30 µM (inactive) | Kd [7]: > 30 µM (inactive) | Kd [8]: > 30 µM (inactive) | Kd [9]: > 30 µM (inactive) | Kd [10]: > 30 µM (inactive) | Kd [11]: > 30 µM (inactive) | Kd [12]: 4.13 µM (active) | Kd [13]: > 30 µM (inactive)

Cn1cnc2c(F)c(Nc3ccc(Br)cc3F)c(C(=O)NOCCO)cc21 [BINIMETINIB]
Kd [1]: > 30 µM (inactive) | Kd [2]: > 30 µM (inactive) | Kd [3]: > 30 µM (inactive) | Kd [4]: > 30 µM (inactive) | Kd [5]: > 30 µM (inactive) | Kd [6]: > 30 µM (inactive) | Kd [7]: > 30 µM (inactive) | Kd [8]: > 30 µM (inactive) | Kd [9]: > 30 µM (inactive) | Kd [10]: > 30 µM (inactive) | Kd [11]: > 30 µM (inactive) | Kd [12]: > 30 µM (inactive) | Kd [13]: > 30 µM (inactive)

CCn1c(C(=O)N(C2CC2)C2CC2)cc2c3c(ncn3C)c(Nc3cc(C)n(C)n3)nc21 [BMS-911543]
Kd [1]: > 30 µM (inactive) | Kd [2]: > 30 µM (inactive) | Kd [3]: > 30 µM (inactive) | Kd [4]: > 30 µM (inactive) | Kd [5]: > 30 µM (inactive) | Kd [6]: > 30 µM (inactive) | Kd [7]: > 30 µM (inactive) | Kd [8]: > 30 µM (inactive) | Kd [9]: > 30 µM (inactive) | Kd [10]: > 30 µM (inactive) | Kd [11]: > 30 µM (inactive) | Kd [12]: > 30 µM (inactive) | Kd [13]: > 30 µM (inactive)

COc1cc2ncnc(Oc3cccc(NC(=O)Nc4cc(C(C)(C)C(F)(F)F)on4)c3)c2cc1OC [CEP-32496]
Kd [1]: > 30 µM (inactive) | Kd [2]: > 30 µM (inactive) | Kd [3]: > 30 µM (inactive) | Kd [4]: > 30 µM (inactive) | Kd [5]: > 30 µM (inactive) | Kd [6]: > 30 µM (inactive) | Kd [7]: > 30 µM (inactive) | Kd [8]: > 30 µM (inactive) | Kd [9]: > 30 µM (inactive) | Kd [10]: > 30 µM (inactive) | Kd [11]: > 30 µM (inactive) | Kd [12]: > 30 µM (inactive) | Kd [13]: > 30 µM (inactive)

Cc1cc(Nc2ncc(Cl)c(Nc3ccccc3S(=O)(=O)C(C)C)n2)c(OC(C)C)cc1C1CCNCC1 [CERITINIB]
Kd [1]: > 30 µM (inactive) | Kd [2]: > 30 µM (inactive) | Kd [3]: > 30 µM (inactive) | Kd [4]: > 30 µM (inactive) | Kd [5]: > 30 µM (inactive) | Kd [6]: > 30 µM (inactive) | Kd [7]: > 30 µM (inactive) | Kd [8]: > 30 µM (inactive) | Kd [9]: > 30 µM (inactive) | Kd [10]: > 30 µM (inactive) | Kd [11]: > 30 µM (inactive) | Kd [12]: 21.4 µM (active) | Kd [13]: > 30 µM (inactive)

COCC(=O)NC/C=C/c1ccc2ncnc(Nc3ccc(Oc4ccc(C)nc4)c(C)c3)c2c1 [CP-724714]
Kd [1]: > 30 µM (inactive) | Kd [2]: > 30 µM (inactive) | Kd [3]: > 30 µM (inactive) | Kd [4]: > 30 µM (inactive) | Kd [5]: > 30 µM (inactive) | Kd [6]: > 30 µM (inactive) | Kd [7]: > 30 µM (inactive) | Kd [8]: > 30 µM (inactive) | Kd [9]: > 30 µM (inactive) | Kd [10]: > 30 µM (inactive) | Kd [11]: > 30 µM (inactive) | Kd [12]: > 30 µM (inactive) | Kd [13]: > 30 µM (inactive)

C#Cc1cccc(Nc2ncnc3cc(OC)c(OCCCCCCC(=O)NO)cc23)c1 [CUDC-101]
Kd [1]: > 30 µM (inactive) | Kd [2]: > 30 µM (inactive) | Kd [3]: > 30 µM (inactive) | Kd [4]: > 30 µM (inactive) | Kd [5]: > 30 µM (inactive) | Kd [6]: > 30 µM (inactive) | Kd [7]: > 30 µM (inactive) | Kd [8]: > 30 µM (inactive) | Kd [9]: > 30 µM (inactive) | Kd [10]: > 30 µM (inactive) | Kd [11]: > 30 µM (inactive) | Kd [12]: > 30 µM (inactive) | Kd [13]: 1.28 µM (active)

CCOc1cc2ncc(C#N)c(Nc3ccc(F)c(Cl)c3)c2cc1NC(=O)/C=C/CN(C)C [PELITINIB]
Kd [1]: > 30 µM (inactive) | Kd [2]: > 30 µM (inactive) | Kd [3]: > 30 µM (inactive) | Kd [4]: > 30 µM (inactive) | Kd [5]: > 30 µM (inactive) | Kd [6]: > 30 µM (inactive) | Kd [7]: > 30 µM (inactive) | Kd [8]: > 30 µM (inactive) | Kd [9]: > 30 µM (inactive) | Kd [10]: > 30 µM (inactive) | Kd [12]: > 30 µM (inactive) | Kd [13]: 0.097 µM (active)

CO[C@H]1C[C@@H]2CC[C@@H](C)[C@@](O)(O2)C(=O)C(=O)N2CCCC[C@H]2C(=O)O[C@H]([C@H](C)C[C@@H]2CC[C@@H](OP(C)(C)=O)[C@H](OC)C2)CC(=O)[C@H](C)/C=C(\C)[C@@H](O)[C@@H](OC)C(=O)[C@H](C)C[C@H](C)/C=C/C=C/C=C/1C [RIDAFOROLIMUS]
Kd [1]: > 30 µM (inactive) | Kd [2]: > 30 µM (inactive) | Kd [3]: > 30 µM (inactive) | Kd [4]: > 30 µM (inactive) | Kd [5]: > 30 µM (inactive) | Kd [6]: > 30 µM (inactive) | Kd [7]: > 30 µM (inactive) | Kd [8]: > 30 µM (inactive) | Kd [9]: > 30 µM (inactive) | Kd [11]: > 30 µM (inactive) | Kd [12]: > 30 µM (inactive) | Kd [13]: > 30 µM (inactive)
